Test results reported in patent US8481284B2, “Process of preparing conjugates of allium organosulfur compounds with amino acids, peptides, and proteins” (Wisconsin Alumni Research Foundation, priority 2009, dated 2013).
Where two headings read alike, the source gives them in different places.

Legend:
[1] = tested on: nitric oxide (NO) in lipopolysaccharide-activated macrophages (RAW 264.7); assay: Inhibition of NO evolution in lipopolysaccharide-activated macrophages (RAW 264.7), Griess reagent; type: cell-based, murine; settings: Mus musculus, RAW264.7; for IC50: LPS 1 μg/ml, 24 hour incubation; for inhibition at 125 µg/mL: at 125 μg/ml, the highest level tested
Procedure: Each conjugate was tested over a dose range and the evolution of NO over the 24 hour incubation period was measured as […] by the Griess reagent using established protocols ([…] et al., 1996). The dose where a 50% inhibition of NO evolution occurred (IC50) relative to the control cells without added conjugate was estimated by sigmoidal curve-fitting as a relative measure of anti-inflammatory activity, with lower IC50 values representing greater potency. […] Typical experimental results are shown for the GSSPe conjugate (FIG. 12), and summary results are provided for all conjugates in terms of relative potency (IC50 values) for NO inhibition (Table 9).

[2] = tested on: quinone reductase (QR) activity in Hepa 1c1c7 cells; assay: QR (quinone reductase) induction in Hepa 1c1c7 cells; type: cell-based; settings: for QR induction in the presence of increasing exogenous GSH: 31 μg/ml conjugate, increasing exogenous GSH in medium; for QR induction at a single dose: 31 μg/ml; for QR induction at a single dose / EC (2-fold QR induction): Hepa 1c1c7 cells; for EC (2-fold QR induction): read-out: CD values (dose where there was a doubling of QR)
Procedure: Specifically, the mixed disulfide conjugates as prepared similar to the pure conjugates of Example 10 or purified from mixtures prepared in Example 11 were used with the Hepa 1c1c7 cell line as disclosed in Prochaska, et al., 1992. Each conjugate was tested over a dose range and increases in quinone reductase (QR) activity was used as a biomarker for phase II enzyme induction, an established mechanism of cancer chemoprotection. […] Results were considered valid as long as cell viability in the assay was >50% as recommended by the established protocol. Typical experimental results are shown for the CySSPe conjugate (FIG. 11), and summary results are provided for all conjugates in terms of relative potency (CD values) for QR induction (Table 8).
(§1) Generally, redox modulation and thiol upregulation is considered a defense mechanism to pathological processes in cells. These mechanisms were analyzed in the mixed disulfide conjugates in both Hepa 1c1c7 and RAW 264.7 macrophage cell lines. Evidence of redox modulation was obtained in terms of 1) attenuation of QR inducing activity with increasing reducing capacity of cells through exogenous GSH addition, 2) increases in cellular glutathione (GSH) and 3) export/enrichment of thiols in the extracellular fluid.

RAW 264.7 cells = assay: Thiol export (extracellular thiols, DTNB) by macrophages; type: cell-based, murine; settings: compared with other species or control cells
Procedure: FIG. 15 depicts the extracellular thiol concentrations of RAW 264.7 cells treated with CySSR and 5,5′-dithio-bis(2-nitrobenzoic acid) (DTNB) as analyzed in Example 31.
as §1
Specifically, CySSR as prepared in Example 11 was added to macrophages. Thiol export by the macrophages was then analyzed. All CySSR species tested at 31 μg/ml induced thiol export by macrophages by as much as 20-35 times level observed for untreated control cells. Thiols were measured by Ellman's reagent (DTNB). […] Cellular exporting of thiols represents another mechanism by which cells respond to oxidative stress by exporting reducing equivalents to restore extracellular redox homeostasis.

[3] = tested on: intracellular GSH in Hepa 1c1c7 cells; assay: Intracellular GSH content of Hepa 1c1c7 cells after conjugate addition; type: cell-based; settings: over the first 10 hours
Procedure: Another related consequence of adding the conjugates to the cells was an increase in cellular GSH. This response is considered to be a general antioxidant defense as well as one that provides specific protection to cancer (Kim et al., 2009) and was assessed in the next Example.
Specifically, GSSP was prepared similar to the GSSR conjugates in Example 11 and added to Hepa 1c1c7 cells. The changes in intracellular GSH content was measured after lysis of the cells at pre-determined intervals after addition of the GSSP conjugate.

[4] = molar equivalent of the μg/ml value

How did the IC50 ([1]; cell viability ≧80%) turn out when `C=CCSSC[C@@H](N)C(=O)O` [CySSA, S-allyl-L-mercaptocysteine] was run?
The IC50 was 9 µg/mL.

And the IC50 [1, 4]?
Its IC50 is 47 µM.

What about the “QR induction in the presence of increasing exogenous GSH” value [2] of the same compound?
Its value is “progressively attenuated”.

What about the “QR induction at a single dose” value [2] of the same compound?
Its value is “nearly a doubling of QR”.

What about the EC (2-fold QR induction) ([2]; cell viability >50%) of the same compound?
Its EC (2-fold QR induction) is 26 µg/mL.

And the EC (2-fold QR induction) [2, 4]?
The EC (2-fold QR induction) was 130 µM.

With `CCSSC[C@@H](N)C(=O)O` [CySSE, S-ethyl-L-mercaptocysteine] as the compound, how does the IC50 ([1]; cell viability ≧80%) read?
Its IC50 is 102 µg/mL.

And the IC50 [1, 4]?
Its IC50 is 560 µM.

And the EC (2-fold QR induction) ([2]; cell viability >50%)?
The EC (2-fold QR induction) was 76 µg/mL.

What about the EC (2-fold QR induction) [2, 4] of the same compound?
The EC (2-fold QR induction) was 420 µM.

Which IC50 ([1]; cell viability ≧80%) does the source give for `CSSC[C@@H](N)C(=O)O` [CySSM, S-methyl-L-mercaptocysteine] here?
Its IC50 is 48 µg/mL.

And the IC50 [1, 4]?
Its IC50 is 290 µM.

What about the EC (2-fold QR induction) ([2]; cell viability >50%) of the same compound?
The EC (2-fold QR induction) was 89 µg/mL.

And the EC (2-fold QR induction) [2, 4]?
Its EC (2-fold QR induction) is 530 µM.

Which IC50 ([1]; cell viability ≧80%) does the source give for `CCCSSC[C@@H](N)C(=O)O` [CySSP, S-propyl-L-mercaptocysteine] here?
The IC50 was 63 µg/mL.

What about the IC50 [1, 4] of the same compound?
The IC50 was 320 µM.

What about the EC (2-fold QR induction) ([2]; cell viability >50%) of the same compound?
The EC (2-fold QR induction) was 92 µg/mL.

What about the EC (2-fold QR induction) [2, 4] of the same compound?
Its EC (2-fold QR induction) is 470 µM.

`C/C=C/SSC[C@@H](N)C(=O)O` [CySSPe, S-1-propenyl-L-mercaptocysteine] was tested. Which IC50 ([1]; cell viability ≧80%) did it give?
The IC50 was 21 µg/mL.

And the IC50 [1, 4]?
The IC50 was 110 µM.

And the “thiol efflux / extracellular thiols, in words” value (RAW 264.7 cells)?
Its value is “about half as much thiol efflux as the others”.

What about the EC (2-fold QR induction) ([2]; cell viability >50%) of the same compound?
The EC (2-fold QR induction) was 4.8 µg/mL.

What about the EC (2-fold QR induction) [2, 4] of the same compound?
Its EC (2-fold QR induction) is 25 µM.

For `C=CCSSC[C@H](NC(=O)CC[C@H](N)C(=O)O)C(=O)NCC(=O)O` [GSSA, S-2-propenyl-L-mercaptoglutathione], which IC50 ([1]; cell viability ≧80%) is on record?
The IC50 was 87 µg/mL.

And the IC50 [1, 4]?
The IC50 was 230 µM.

And the “QR induction in the presence of increasing exogenous GSH” value [2]?
The value was “progressively attenuated”.

What about the “QR induction at a single dose” value [2] of the same compound?
Its value is “nearly a doubling of QR”.

And the EC (2-fold QR induction) ([2]; cell viability >50%)?
The EC (2-fold QR induction) was 33 µg/mL.

And the EC (2-fold QR induction) [2, 4]?
Its EC (2-fold QR induction) is 87 µM.

For `CCSSC[C@H](NC(=O)CC[C@H](N)C(=O)O)C(=O)NCC(=O)O` [GSSE, S-ethyl-L-mercaptoglutathione], which inhibition at 125 µg/mL [1] is on record?
The inhibition at 125 µg/mL was 25%.

And the EC (2-fold QR induction) ([2]; cell viability >50%)?
The EC (2-fold QR induction) was 72 µg/mL.

And the EC (2-fold QR induction) [2, 4]?
Its EC (2-fold QR induction) is 200 µM.

How did the inhibition at 125 µg/mL [1] turn out when `CSSC[C@H](NC(=O)CC[C@H](N)C(=O)O)C(=O)NCC(=O)O` [GSSM, S-methlyl-L-mercaptoglutathione] was run?
Its inhibition at 125 µg/mL is 26%.

And the EC (2-fold QR induction) ([2]; cell viability >50%)?
The EC (2-fold QR induction) was 87 µg/mL.

And the EC (2-fold QR induction) [2, 4]?
Its EC (2-fold QR induction) is 250 µM.

What does the source list for `CCCSSC[C@H](NC(=O)CC[C@H](N)C(=O)O)C(=O)NCC(=O)O` [GSSP, S-propyl-L-mercaptoglutathione]?
inhibition at 125 µg/mL [1]: 34%; EC (2-fold QR induction) ([2]; cell viability >50%): 73 µg/mL; EC (2-fold QR induction) [2, 4]: 190 µM; elevation of intracellular GSH over control [3]: 50-70%

With `C/C=C/SSC[C@H](NC(=O)CC[C@H](N)C(=O)O)C(=O)NCC(=O)O` [GSSPe, S-1-propenyl-L-mercaptoglutathione] as the compound, how does the IC50 ([1]; cell viability ≧80%) read?
Its IC50 is 4.6 µg/mL.

And the IC50 [1, 4]?
The IC50 was 16 µM.

And the EC (2-fold QR induction) ([2]; cell viability >50%)?
The EC (2-fold QR induction) was 5.3 µg/mL.

What about the EC (2-fold QR induction) [2, 4] of the same compound?
The EC (2-fold QR induction) was 14 µM.
